PubChem BioAssay AID1259407 (Chemical Carcinogenesis Research Information System (CCRIS), 2018)
Activity calls are given as the source filed them. No rule for the calls is given here.

System: CCRIS mutagenicity, Ames/micronucleus/aberration tests
Assay: CCRIS mutagenicity studies

Measured: mutagenic call

c1c[nH]cn1
inactive: Test System: AMES SALMONELLA TYPHIMURIUM, Strain/Indicator: TA97, Metabolic Activation: NONE, Method: STANDARD PLATE inactive; negative | Test System: AMES SALMONELLA TYPHIMURIUM, Strain/Indicator: TA97, Metabolic Activation: RAT, LIVER, S-9, PHENOBARBITAL AND BETA-NAPHTHOFLAVONE, Method: STANDARD PLATE inactive; negative | Test System: AMES SALMONELLA TYPHIMURIUM, Strain/Indicator: TA98, Metabolic Activation: NONE, Method: STANDARD PLATE inactive; negative | Test System: AMES SALMONELLA TYPHIMURIUM, Strain/Indicator: TA98, Metabolic Activation: RAT, LIVER, S-9, PHENOBARBITAL AND BETA-NAPHTHOFLAVONE, Method: STANDARD PLATE inactive; negative | Test System: AMES SALMONELLA TYPHIMURIUM, Strain/Indicator: TA100, Metabolic Activation: NONE, Method: STANDARD PLATE inactive; negative | Test System: AMES SALMONELLA TYPHIMURIUM, Strain/Indicator: TA100, Metabolic Activation: RAT, LIVER, S-9, PHENOBARBITAL AND BETA-NAPHTHOFLAVONE, Method: STANDARD PLATE inactive; negative | Test System: AMES SALMONELLA TYPHIMURIUM, Strain/Indicator: TA102, Metabolic Activation: NONE, Method: STANDARD PLATE inactive; negative | Test System: AMES SALMONELLA TYPHIMURIUM, Strain/Indicator: TA102, Metabolic Activation: RAT, LIVER, S-9, PHENOBARBITAL AND BETA-NAPHTHOFLAVONE, Method: STANDARD PLATE inactive; negative | Test System: UDS RAT HEPATOCYTES, Strain/Indicator: THY INCORP, Metabolic Activation: NONE, Method: AUTORADIOGRAPHY inactive; negative

CCCCCN(CCCC)N=O
active: Test System: AMES SALMONELLA TYPHIMURIUM, Strain/Indicator: TA100, Metabolic Activation: RAT, LIVER, S-9, KC500 OR PHENOBARBITAL, Method: LIQUID SUSPENSION active; positive
